Laboratory results from US20240156773A1, “METHOD FOR INCREASING BLOOD DECANOIC ACID CONCENTRATION, BLOOD-DECANOIC-ACID-CONCENTRATION-INCREASING AGENT, PHARMACEUTICAL COMPOSITION, AND FOOD COMPOSITION” (The Nisshin OilliO Group, Ltd., priority 2021, published 2024).

Test: Administration test of triglyceride to rat: blood decanoic acid concentration
Details: in vivo, po
Description: Male SD rats aged 7 weeks (Japan SLC, Inc.) were kept using a TPX cage (W21.8×D37.3×H18.1 cm) with three rats or less/cage. The rats were fed ad libitum with solid feed “Labo MR stock” (Nosan Corporation.) sterilized with radiation throughout the feeding period, and fasted about 16 hours before the administration of a test fat and oil sample. The rats were fed ad libitum with distilled water as drinking water using a water supply bottle. The acclimation period was a week, and it was confirmed that abnormalities of general conditions were not observed on the final day of the acclimation period, and body weight was measured using an electronic scale (GX-3000; A & D Company, Limited). The rats were divided into 6 groups for each test fat and oil sample using a grouping software (Statlight; Yukms Co., Ltd.) so that the body weight of the groups was almost equal (6 rats in each group).
Each TG was orally administered in a single dose at 1 mL/body using a 1 mL disposable syringe and a disposable gastric tube for rats. […]
To the extracted lipid fraction, 2 ml of a 0.5 mol/L NaOH-methanol solution was added. […] The hexane layer was transferred to a vial, and used for GC (Agilent Technologies) in the conditions shown in Table 3, and the blood decanoic acid concentration was determined by the internal standard method. […]

SMILES: CCCCCCCCCC(=O)OCC(COC(=O)CCCCCCCCC)OC(=O)CCCCCCCCC [TG1, tridecanoin]
- Blood decanoic acid concentration, average value: 124.4 µM
